Drawing on a melting point compilation (Tetko et al.; mined from patent text by program, amines drawn as free bases though some values may be those of a salt), this text covers melting point for 89 compounds.

For the compound `O=C(N[C@@H]1CCN(CCNc2ncccn2)C[C@H]1O)c1cccc(C(F)(F)F)c1` (relative stereo), the melting point – broadly, the temperature of the solid-liquid transition – amounted to 148 °C.

For the compound `O=C(CN1CCNCC1C(=O)CCCCCNO)Nc1nc2ccccc2s1` (centres undefined), the melting point is 150 to 152 °C.

Consider `O=C1CCCCC1n1nc(-c2c(-c3ccccc3)nn3ccccc23)ccc1=O` (centres undefined), for which the melting point was 166 to 168 °C.

As to `COc1ccc(C(c2ccc(OC)cc2)(c2ccc(OC)cc2)N2CCCCC2)cc1`, the melting point was 73 to 75 °C.

With `O=C1Nc2cccc(-c3cccc(NC(=O)c4ccc(S(=O)(=O)F)cc4)c3)c2/C1=C/c1ccc[nH]1`, the melting point was in the range of 148 to 151 °C.

In the case of `COP(=O)(Nc1ccc(N)cc1)OC`, the melting point stood at 125 °C.

Take `CNC(=S)NCCCCc1nccs1`: the melting point was 130 to 132 °C.

Consider `NC(=O)c1sc2c(Cl)cccc2c1Cl`, for which the melting point fell in the range of 225 to 229 °C.

`O=C(O)Cc1c(C(=O)c2ncc[nH]2)[nH]c2cc(Cl)ccc12` yielded a melting point of 252 to 253 °C.

Regarding `CCOC(=O)c1cc2cc(Br)ccc2[nH]1`, the melting point lay in the range of 160 to 164 °C.

`Cc1ccc(S(=O)(=O)N2CCC(c3ccc4c(c3)C(=O)CCCC4)CC2)cc1` had a melting point of 165 to 169 °C.

As for `C=CCOC(=O)c1cccc(NC(=O)NCC(=O)Nc2ccccc2C(=O)c2ccc(OC)cc2)c1`, the melting point fell in the range of 167 to 169 °C.

As to `CCCCNC(=O)NS(=O)(=O)c1c(C(=O)OCC)cnn1-c1ccccn1`, the melting point lay within 180 to 181 °C.

The compound `O=C(O)[C@@H]1CC[C@@H](Oc2ccccc2)c2c(-c3ccc(Cl)cc3)noc2C1` (relative stereo) registered a melting point of 182 to 183 °C.

On to `Cn1cc(C(=O)NCc2ccc(Cl)cc2)c(=O)c2cc(CO)oc21`, for which the melting point lay in the range of 229 to 230 °C.

With `Cc1cn2c(n1)C(=O)CCC2`, the melting point was 147 to 149 °C.

Consider `N#Cc1ccc(-c2cc(-c3ccc(C#N)cc3Cl)no2)cc1`, for which the melting point is 247 to 248 °C.

As to `COc1ccc2c(c1O)COCc1cc(OC)c(OC)c(OC)c1-2`, the melting point lay in the range of 145 to 147 °C.

Take `Cc1c(C(=O)Nc2ccc(N3CCCC3)c(C#N)c2)cnn1-c1ccc(F)cc1`: the melting point came to 185 °C.

Compound `CCOC(=O)c1cnc2nc(OCC)ccc2c1O` returned a melting point of 175 to 179 °C.

`OC1Cc2ccccc2C1N1CCCCC1` (centres undefined) displayed a melting point of 82 °C.

`c1ccc(-c2ccccc2OCCCCOc2ccccc2-c2ccccc2)cc1` returned a melting point of 62 to 67 °C.

On to `O=[N+]([O-])c1ccc(OS(=O)(=O)c2ccccc2I)cc1`, for which the melting point was in the range of 131 to 133 °C.

With `COc1ccc(CN(CCN(C)CCN=C(NC#N)NCCSCc2csc(NC(=N)N)n2)c2ccccn2)cc1`, the melting point was in the range of 56 to 58 °C.

`CCCCc1nc(C(F)(F)C(F)(F)F)c(CO)n1Cc1ccc(-c2ccccc2C(=O)O)cc1` registered a melting point of 190 to 191 °C.

In the case of `COc1ccc(N(C(=O)CN2C(=O)C(Cc3n[nH]c4c3CCCC4)C(=O)N(c3ccccc3)c3ccccc32)C(C)C)cc1` (centres undefined), the melting point fell in the range of 170 to 173 °C.

On to `CC1(C)C=C(CCl)CS1(=O)=O`, for which the melting point was in the range of 59 to 60 °C.

In turn, `Cc1c2n(c3ccccc13)CCC2O` (centres undefined) displayed a melting point of 118 to 120 °C.

With `CCC(C)CNC(=O)c1cc(NC(=O)OCc2ccccc2)cc(C(=O)NCC(C)CC)c1` (centres undefined), the melting point was 130 to 132 °C.

For `O=C(OCc1ccccc1)C(CO)N(C(=O)Cc1ccccc1)C(=O)OCc1ccccc1` (centres undefined), the melting point was in the range of 59 to 60 °C.

As to `CCc1cccc2c(C(C)=CC(=O)O)cc(OC)c(O)c12`, the melting point lay within 114 to 115 °C.

With `COc1cc(COc2nn(-c3ccc(C(F)(F)F)cc3)cc2/C=C/C(=O)OCOC(=O)C(C)(C)C)ccc1OCc1nc(-c2ccccc2)oc1C`, the melting point fell in the range of 131 to 132 °C.

Take `COC1=C(OC)C(=O)C2=C(CCC(CCOc3ccc4c(c3)OCO4)CC2)C1=O`: the melting point was in the range of 75 to 78 °C.

`COC(=O)c1sc(-c2ccc(F)cc2)cc1-c1nnn(C)n1` displayed a melting point of 132 °C.

On to `COC(=O)c1ccc(Cn2c(=O)c(C)c3sc(C(=O)NCc4ccc(F)cc4)cn3c2=O)cc1Cl`, for which the melting point lay within 176 to 178 °C.

Compound `COc1nc(-c2ccc(Cl)cc2)nc(Cl)c1Cl` displayed a melting point of 157 to 159 °C.

Compound `Cc1nc2ccccc2c(=O)n1-c1ccc(Cl)cc1` gave a melting point of 141 to 142 °C.

Take `Cc1c(CC(C)(C)C(=O)O)n(Cc2ccc(Cl)cc2)c2ccc(Cl)cc12`: the melting point amounted to 142 °C.

As for `CN(C)C=C1CC(=O)c2ccccc2NC1=O`, the melting point was in the range of 203 to 205 °C.

Turning to `CC(C)(C)OC(=O)C(O)c1ccc2c(c1)OC(c1ccccc1)(c1ccccc1)O2` (centres undefined), the melting point fell in the range of 153 to 154 °C.

The compound `CCCCCCCCCCCCCCOc1ccc(CC(=O)Nc2ccc(-n3ccnc3C)cc2)cc1` displayed a melting point of 106 to 109 °C.

`COc1ccc(C2(c3ccc(OC)cc3)CC2(Br)Br)cc1` showed a melting point of 173 to 175 °C.

The compound `O=C(CC1CCN(C(=O)OCc2ccccc2)CC1)c1c[nH]c2ccccc12` showed a melting point of 122 °C.

On to `Oc1ccc2c(c1O)C(Cc1ccnc3ccccc13)c1ccccc1-2` (centres undefined), for which the melting point lay within 244 to 246 °C.

The compound `CNC(=O)c1ccccc1Nc1nc(Nc2ccc3c(c2)N(C)CCN(CCOC)C3)ncc1Cl` showed a melting point of 172 to 174 °C.

Compound `COc1ccc(NC(=O)c2ccc(C(C)(C)C)cc2)c([N+](=O)[O-])c1` gave a melting point of 103 to 107 °C.

The compound `CC(=O)Nc1c(C)c(C)c2c(c1N(C)C)CC(C)(C)O2` yielded a melting point of 186 °C.

Turning to `O=C(c1cccc(Nc2ncnc3ccccc23)c1)N1CCN(c2ncc(Cc3ccccc3)cn2)CC1`, the melting point was in the range of 120 to 122 °C.

As for `CC(CC(=O)O)C(=O)c1ccc(C(=O)C(C)CC(=O)O)cc1` (centres undefined), the melting point was in the range of 195 to 202 °C.

`Cc1nc(C)c(-c2ccnc(Nc3ccc(N4CCSCC4)cc3)n2)s1`: the melting point is 173 to 174 °C.

For the compound `O=C(Nc1ccc2nc(S)[nH]c2c1)C(=O)N1CCC(Cc2ccc(F)cc2)CC1`, the melting point was 286 to 288 °C.

Turning to `N#Cc1ccc(C=S)c(-c2ccccc2)c1`, the melting point was 88 °C.

For `NS(=O)(=O)c1cc2[nH]c(-c3nc4cc(Cl)c(S(N)(=O)=O)cc4[nH]3)nc2cc1Cl`, the melting point turned out to be 360 °C.

Compound `ClCC1CN(Cc2ccccc2)CCN1Cc1ccccc1` (centres undefined) registered a melting point of 54 to 56 °C.

`COC(=O)c1ccc(OC2CCCCO2)cc1` (centres undefined) returned a melting point of 58 to 62 °C.

Turning to `CCc1nn2c(-c3ccc(OC)cc3Cl)cccc2c1N(CC)CCCF`, the melting point lay in the range of 76.6 to 79.6 °C.

Turning to `CC1C(=O)Oc2cc(N3CCCC3)ccc21` (centres undefined), the melting point is 101 to 103 °C.

Turning to `Cc1c(-c2ccncc2)[nH]c(-c2ccncc2)c1S(C)(=O)=O`, the melting point is 232 to 234 °C.

For the compound `COC(=O)C(C)(C)OCc1cc2cc(C(F)(F)F)ccc2n1S(=O)(=O)c1ccc2c(c1)OCCO2`, the melting point is 128 to 130 °C.

On to `CC(=O)NC1CCN(c2cccc(Sc3ccccc3)n2)CC1`, for which the melting point is 110 to 112 °C.

`C=CCn1c(N)c(N=O)c(=O)n(CC=C)c1=O` registered a melting point of 170 to 180 °C.

`CC(=O)OC1CCC2(C)C(=CCC3C2CCC2(C)C(C(C)CCCC(C)(C)C)CCC32)C1` (centres undefined) had a melting point of 152 to 153 °C.

On to `CS(=O)(=O)c1ccc(-c2cc(S(C)(=O)=O)nn2-c2ccc(F)cc2)cc1`, for which the melting point was in the range of 209 to 210 °C.

`OC(CN1CCN(Cc2ccccc2)CC1)Cn1c2ccc(Br)cc2c2cc(Br)ccc21` (centres undefined) displayed a melting point of 70 to 75 °C.

Turning to `CN1CCN(c2ccc(-c3cnc4[nH]cc(C(=O)N[C@@H](C(=O)N5CC(C#N)C5)C5CC5)c4n3)cc2)CC1`, the melting point was 178 to 185 °C.

Take `CC(C)(O)P(=O)(O)CCCN`: the melting point is 243 to 244 °C.

Consider `CCCCNC(=O)[C@H](C)C[C@H](O)[C@H](CC1CCCCC1)NC(=O)[C@H](Cc1cscn1)NC(=O)[C@@H](CC(=O)N1CCCCC1)Cc1ccc(OC)cc1`, for which the melting point was in the range of 120 to 122 °C.

The compound `COc1cc(OCC(=O)O)c(C)cc1SCCc1ccc(-c2ccc(C(F)(F)F)cc2)cc1` yielded a melting point of 169 to 171 °C.

Compound `Oc1ccc2c(c1)CC(n1cc[nH]c1=S)CC2` (centres undefined) gave a melting point of 248 to 250 °C.

Compound `Cn1c(=O)[nH]c2nc3ccc(OCCCCC(=O)O)cc3cc21` came in with a melting point of 311 to 313 °C.

Take `CCOC(=O)c1cnc2n(c1=O)c1ccccc1c1ncc(C(=O)OCC)c(=O)n12`: the melting point was in the range of 193 to 195 °C.

The compound `CCC(COC)Nc1nc(C)nc(N2CCc3cc(OC)cc(Cl)c32)c1C=O` (centres undefined) gave a melting point of 150 to 153 °C.

The compound `CN(C)S(=O)(=O)C(Br)(Br)S(=O)(=O)c1ccccc1` showed a melting point of 144 to 145 °C.

In the case of `C#Cc1cccc(NC(=O)C(Cl)Cl)c1`, the melting point is 99 to 100 °C.

The compound `c1ccc(-c2cnc(NC3CCC(CCN4CCN(c5ccccc5)CC4)CC3)nc2)cc1` (centres undefined) returned a melting point of 170 °C.

Regarding `CCCCc1nc2c(N)nc(C)c(C)c2n1NC1CCCCC1`, the melting point lay within 160 to 162 °C.

Compound `[N-]=[N+]=Nc1nc(C(F)(F)F)nc(-c2ccccc2)c1-c1ccccc1` had a melting point of 126 to 128 °C.

`NC(=O)NN=Cc1ccc(OC2CCCCCC2)cc1` had a melting point of 215 to 216 °C.

`CC(CC(F)(F)F)C(N)=O` (centres undefined): the melting point is 90.5 to 91.5 °C.

For the compound `CC(=O)Nc1c(C(=O)c2ccccc2)[nH]c2c(Cl)cccc12`, the melting point was in the range of 185 to 188 °C.

For the compound `CCCCOc1nc(O)ns1`, the melting point was 62 °C.

In turn, `CCC(CC)(CC(=O)Nc1ccc2ccc(OCc3ccc4cc(F)ccc4n3)cc2c1)C(=O)O` gave a melting point of 191 to 196 °C.

Turning to `Cc1cc(I)ccc1Nc1c(-c2nnco2)ccc(F)c1F`, the melting point lay in the range of 144 to 146 °C.

On to `CCCCCCCCc1ccc(OCC(=O)Cn2ncc3ccccc32)cc1`, for which the melting point lay in the range of 66 to 67 °C.

On to `CN(C)c1ccc(-c2cccc(-c3ccnc4c(C(=O)c5cccs5)cnn34)c2)cc1`, for which the melting point was in the range of 200 to 202 °C.

For the compound `O=C(NCCC1CCCCCCCCCCC1)C1=C(O)COC1=O`, the melting point lay within 135 to 137 °C.

`CCCNC(=O)C1(CCCCN2CCC(N3Cc4ccccc4C3=O)CC2)CCc2ccccc21` (centres undefined) displayed a melting point of 61 to 63 °C.

Consider `CC(C)(CCBr)CC(=O)O`, for which the melting point fell in the range of 53 to 55 °C.

`COc1cc(C(=N)N)ccc1O`: the melting point was over 240 °C.
